Patent EP4696688A1, “BENZO-FUSED RING COMPOUND INHIBITOR, AND PREPARATION METHOD THEREFOR AND USE THEREOF” (Shanghai Hansoh Biomedical Co., Ltd., priority 2023, dated 2024)

Columns and labels:
human CYP11B1 = molecular target: T1, human CYP11B1 (Homo sapiens, UniProt P15538); experiment: G-402 cell enzyme experiment, CYP11B1 (cortisol product, HTRF), selectivity versus CYP11B2; format: cell-based; details: human selective factor: ratio of CYP11B1 EC50 to CYP11B2 EC50; G-402 cells
T1 construct: The main elements of an expression plasmid include ORF of human CYP11B1 or human CYP11B2; expressed in transfected cells
T1 sequence (P15538 25-503): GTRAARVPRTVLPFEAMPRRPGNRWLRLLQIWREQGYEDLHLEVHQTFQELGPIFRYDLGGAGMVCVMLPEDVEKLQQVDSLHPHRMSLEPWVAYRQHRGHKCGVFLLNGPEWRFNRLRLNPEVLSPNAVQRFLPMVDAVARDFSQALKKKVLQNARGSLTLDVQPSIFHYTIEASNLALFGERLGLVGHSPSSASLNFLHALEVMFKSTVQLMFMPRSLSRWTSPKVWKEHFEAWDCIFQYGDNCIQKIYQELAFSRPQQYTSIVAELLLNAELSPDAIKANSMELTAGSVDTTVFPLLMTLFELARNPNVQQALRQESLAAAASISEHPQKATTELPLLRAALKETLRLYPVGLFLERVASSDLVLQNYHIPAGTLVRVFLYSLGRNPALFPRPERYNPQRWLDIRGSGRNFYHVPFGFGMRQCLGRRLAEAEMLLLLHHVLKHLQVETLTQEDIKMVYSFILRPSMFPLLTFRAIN
From the text: (§1) G-402 cell line was used as host cells to express (by transient or stable transfection) an enzyme of the human CYP11 family. Specifically, G-402 cell lines stably expressing human CYP11B1 and human CYP11B2 were established respectively. […] Therefore, the G-402 cell line is very suitable as a host cell for the ectopic expression of an enzyme of the CYP11 family.
(§2) The G-402 cell line, originally derived from renal myoblastoma, can be obtained from ATCC (CRL-1440). The main elements of an expression plasmid include ORF of human CYP11B1 or human CYP11B2, a suitable promoter (CMV promoter), and a suitable resistance marker (neomycin). The expression plasmid was transfected into G-402 cells by standard technology, and a specific antibiotic was then given for screening. The activity of the enzyme expressed by the screened monoclonal cells was assessed by 11-deoxycorticosterone (substrate of CYP11B2) and 11-deoxycortisol (substrate of CYP11B1).
(§3) The G-402 cells expressing CYP11 plasmid, as established in the above solution, were cultured in McCoy's 5a Modified Medium (ATCC Catalog No. 30-2007) containing 10% FCS and 400 µg/ml G418 in an incubator at 37°C and 5% CO2. A cell enzyme experiment was carried out using DMEM/F12 medium containing 2.5% charcoal-treated FBS and an appropriate concentration of a substrate (1 µM 11-deoxycorticosterone or 1 µM 11-deoxycortisol). In order to detect the activity of the enzyme in the cells, the cells were plated in a 96-well plate and incubated for 16 h. The supernatant was then transferred and analyzed for the concentration of the expected product (the product of CYP11B2: aldosterone; the product of CYP11B1: cortisol). The concentrations of these products were determined by an HTRF experiment of CisBio.
(§4) In the cell enzyme experiment, the inhibitory effect of the test compound on the generated product can reflect the inhibitory effect thereof on the enzyme. The dose-dependent inhibition of the enzyme activity by the compound was calculated by plotting the concentration of the test compound (x axis) versus the measured product level (y axis). Then, the original data was fitted to a 4-parameter sigmoidal function (Morgan-Mercer-Flodin, MMF model) by least square method: y = (AB + Cx^D) / (B + x^D) in which A is the maximum y value, B is the EC50 determined by XLFit, C is the minimum y value, and D is the slope value. The maximum value A corresponds to the amount of the product detected without an inhibitor, and C corresponds to the amount of the product detected in the G402 cells expressing an empty plasmid.
(§5) The EC50 value of the compound of the present invention was determined by the above G-402 experiment system. The activity of the CYP11B2 enzyme was determined under the conditions of 1 µM 11-deoxycorticosterone and a variable amount of the inhibitor, and the activity of the CYP11B1 enzyme was determined under the conditions of 1 µM 11-deoxycortisol and a variable amount of the inhibitor.

human CYP11B2 = molecular target: T2, human CYP11B2 (Homo sapiens, UniProt P19099); experiment: G-402 cell enzyme experiment, CYP11B2 (aldosterone product, HTRF); format: cell-based; details: G-402 cells stably expressing human CYP11B2, 1 µM 11-deoxycorticosterone, 16 h
T2 construct: The main elements of an expression plasmid include ORF of human CYP11B1 or human CYP11B2; expressed in transfected cells
T2 sequence (P19099 25-503): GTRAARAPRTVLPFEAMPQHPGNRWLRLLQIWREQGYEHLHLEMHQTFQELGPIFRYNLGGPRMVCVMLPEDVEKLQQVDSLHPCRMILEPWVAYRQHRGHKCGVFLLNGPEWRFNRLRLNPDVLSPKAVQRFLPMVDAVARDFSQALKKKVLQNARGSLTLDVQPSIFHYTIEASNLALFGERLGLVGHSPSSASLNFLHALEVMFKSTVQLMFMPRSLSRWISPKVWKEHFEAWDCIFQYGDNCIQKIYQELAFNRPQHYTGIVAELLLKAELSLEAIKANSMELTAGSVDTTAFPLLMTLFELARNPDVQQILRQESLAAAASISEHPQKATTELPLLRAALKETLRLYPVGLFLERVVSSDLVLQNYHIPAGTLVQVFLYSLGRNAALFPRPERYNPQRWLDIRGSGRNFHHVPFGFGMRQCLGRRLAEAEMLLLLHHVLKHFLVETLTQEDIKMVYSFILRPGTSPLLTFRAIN
From the text: as §1, §2, §3, §4, §5

Structure (SMILES) | hsF (human CYP11B1) [x] | EC50 (human CYP11B2) [nM]
Cn1cc(C(=O)N2CC3(C2)CN(c2cncc(-c4ccc5c(c4)sc(=O)n5C)n2)C3)cn1 [Example 107, 3-methyl-6-(6-(6-(1-methyl-1H-pyrazole-4-carbonyl)-2,6-diazaspiro[3.3]heptan-2-yl)pyrazin-2-yl)benzo[d]thiazol-2(3H)-one] | > 1923 | 104
Cc1ccc(C(=O)N2CC3(C2)CN(c2cncc(-c4ccc5c(c4)sc(=O)n5C)c2)C3)cn1 [Example 101, 3-methyl-6-(5-(6-(6-methylnicotinoyl)-2,6-diazaspiro[3.3]heptan-2-yl)pyridin-3-yl)benzo[d]thiazol-2(3H)-one] | > 4651 | 43
CCC(=O)NC1CCCc2c(-c3cc(F)c4c(c3)CCc3nncn3-4)cncc21 (stereo not shown) [Example 37, N-(4-(9-fluoro-4,5-dihydro-[1,2,4]triazolo[4,3-a]quinolin-7-yl)-5,6,7,8-tetrahydroisoquinolin-8-yl)propanamide] | – | 35
COc1ccc2cc(-c3cncc(N4CC5(CN(C(C)=O)C5)C4)n3)ccc2n1 [Example 93, 1-(6-(6-(2-methoxyquinolin-6-yl)pyrazin-2-yl)-2,6-diazaspiro[3.3]heptan-2-yl)ethan-1-one] | 229 | 48
COc1ccc2cc(-c3cncc(N4CCC(NC(=O)c5cnn(C)c5)CC4)c3)ccc2n1 [Example 71, N-(1-(5-(2-methoxyquinolin-6-yl)pyridin-3-yl)piperidin-4-yl)-1-methyl-1H-pyrazole-4-carboxamide] | – | 4
Cn1c(=O)ccc2cc(-c3cncc(C4=CCN(S(=O)(=O)C5CC5)CC4)c3)ccc21 [Example 70, 6-(1'-(cyclopropylsulfonyl)-1',2',3',6'-tetrahydro-[3,4'-bipyridin]-5-yl)-1-methylquinolin-2(1H)-one] | 252 | 55
COc1ccc2cc(-c3cncc(N4CC5(CCN(C(=O)c6cnn(C)c6)CC5)C4)c3)ccc2n1 [Example 62, (2-(5-(2-methoxyquinolin-6-yl)pyridin-3-yl)-2,7-diazaspiro[3.5]nonan-7-yl)(1-methyl-1H-pyrazol-4-yl)methanone] | 174 | 14
COc1ccc2cc(-c3cncc(N4CC5(CN(C(=O)c6cnn(C7CC7)c6)C5)C4)c3)ccc2n1 [Example 43, (1-cyclopropyl-1H-pyrazol-4-yl)(6-(5-(2-methoxyquinolin-6-yl)pyridin-3-yl)-2,6-diazaspiro[3.3]heptan-2-yl)methanone] | > 4023 | 50
COc1ccc2cc(-c3cncc(NC4CN(C(=O)c5cnn(C)c5)C4)c3)ccc2n1 [Example 40, (3-((5-(2-methoxyquinolin-6-yl)pyridin-3-yl)amino)azetidin-1-yl)(1-methyl-1H-pyrazol-4-yl)methanone] | 2541 | 13
COc1ccc2cc(-c3cncc(N4CC5(CN(C(C)=O)C5)C4)c3)ccc2n1 [Example 92, 1-(6-(5-(2-methoxyquinolin-6-yl)pyridin-3-yl)-2,6-diazaspiro[3.3]heptan-2-yl)ethan-1-one] | 1285 | 11
CCC(=O)N[C@@H]1CCCc2c(-c3ccc4c(c3)sc(=O)n4C)cncc21 [Example 65, (R)-N-(4-(3-methyl-2-oxo-2,3-dihydrobenzo[d]thiazol-6-yl)-5,6,7,8-tetrahydroisoquinolin-8-yl)propanamide] | – | 89
COc1ccc2cc(-c3cncc(N4CC5(CN(C(=O)C6CC6)C5)C4)c3)ccc2n1 [Example 82, cyclopropyl (6-(5-(2-methoxyquinolin-6-yl)pyridin-3-yl)-2,6-diazaspiro[3.3]heptan-2-yl)methanone] | 842 | 18
CN(c1cncc(-c2ccc3c(c2)sc(=O)n3C)c1)C1CN(C(=O)c2cnn(C)c2)C1 [Example 89, 3-methyl-6-(5-(methyl(1-(1-methyl-1H-pyrazole-4-carbonyl)azetidin-3-yl)amino)pyridin-3-yl)benzo[d]thiazol-2(3H)-one] | – | 9
COc1ccc2cc(-c3cncc(N4CC5(CCN(C(=O)c6cnn(C)c6)C5)C4)c3)ccc2n1 [Example 51, (2-(5-(2-methoxyquinolin-6-yl)pyridin-3-yl)-2,6-diazaspiro[3.4]octane-6-yl)(1-methyl-1H-pyrazol-4-yl)methanone] | 157 | 24
[2H]C([2H])([2H])N(C(=O)c1cnn(C)c1)C1CCN(c2cncc(-c3ccc4nc(OC)ccc4c3)c2)CC1 [Example 72, N-(1-(5-(2-methoxyquinolin-6-yl)pyridin-3-yl)piperidin-4-yl)-1-methyl-N-(methyl-d3)-1H-pyrazole-4-carboxamide] | – | 10
COc1ccc2cc(-c3cncc(NC4CCN(C(=O)c5cnn(C)c5)CC4)c3)ccc2n1 [Example 56, (4-((5-(2-methoxyquinolin-6-yl)pyridin-3-yl)amino)piperidin-1-yl)(1-methyl-1H-pyrazol-4-yl)methanone] | 159 | 7
COc1ccc2cc(-c3cncc(N4CC5(CC(NC(=O)c6cnn(C)c6)C5)C4)c3)ccc2n1 [Example 63, N-(2-(5-(2-methoxyquinolin-6-yl)pyridin-3-yl)-2-azaspiro[3.3]heptan-6-yl)-1-methyl-1H-pyrazole-4-carboxamide] | 1912 | 6
COc1ccc2cc(-c3cncc4c3CCCC4NC(C)=O)ccc2n1 (stereo not shown) [Example 24-A] | – | 16
COc1ccc2cc(-c3cncc(N4CCN(C(=O)c5cnn(C)c5)CC4)c3)ccc2n1 [Example 50, (4-(5-(2-methoxyquinolin-6-yl)pyridin-3-yl)piperazin-1-yl)(1-methyl-1H-pyrazol-4-yl)methanone] | – | 8
CCC(=O)Nc1cccc2c(-c3ccc4nc(OC)ccc4c3)cncc12 [Example 68, N-(4-(2-methoxyquinolin-6-yl)isoquinolin-8-yl)propanamide] | – | 33
CCS(=O)(=O)N1CC(Oc2cncc(-c3ccc4nc(OC)ccc4c3)c2)C1 [Example 22, 6-(5-((1-(ethylsulfonyl)azetidin-3-yl)oxy)pyridin-3-yl)-2-methoxyquinoline] | – | 5
CCS(=O)(=O)N1CC(Oc2cncc(-c3ccc4c(c3)sc(=O)n4C)c2)C1 [Example 90, 6-(5-((1-(ethylsulfonyl)azetidin-3-yl)oxy)pyridin-3-yl)-3-methylbenzo[d]thiazol-2(3H)-one] | – | 23
